Results reported in patent US20240300937A1, “Substituted 6-(Pyrimidin-4-yl)Quinoline Compounds as Cyclin Dependent Kinase Inhibitors” (BeiGene, Ltd., priority 2022, published 2024).

How the values were obtained:
CDK4/Cyclin D1 = CDK4/Cyclin D1 (Homo sapiens (Human), UniProt P11802); experiment: CDK4/Cyclin D1 kinase TR-FRET inhibition assay; assay type: biochemical; conditions: 1 mM ATP, Rb (Ser780)-biotin substrate, read-out: CDK4D1 IC50
Procedure: (§1) Compounds disclosed herein were tested for inhibition of CDK4/Cyclin D1 or CDK6/Cyclin D3 kinase in an assay based on the time-resolved fluorescence-resonance energy transfer (TR-FRET) methodology. The assay was carried out in 384-well low volume black plates in a reaction mixture containing CDK4/Cyclin D1 or CDK6/Cyclin D3, 1 mM ATP, 0.15 μM Rb (Ser780)-biotin substrate and 0-10 μM compound in buffer containing 50 mM HEPES pH7.0, 0.02% NaN3, 0.01% BSA, 0.1 mM Orthovanadate, 50 mM MgCl2, 1 mM DTT and 0.005% Tween-20. The kinase was incubated with compound for 60 minutes at room temperature and the reaction was initiated by the addition of ATP and Rb (Ser780)-biotin substrate. After reaction at room temperature for 120 minutes, an equal volume of stop/detection solution was added according to the manufacture's instruction (Cisbio Bioassays). The stop/detection solution contained Streptavidin-XL665 and Anti-pRb (Ser780) mAb-Eu Cryptate in Detection buffer (Cisbio Bioassays). Plates were incubated at room temperature for 60 minutes, and the TR-FRET signals (ex337 nm, em665 nm/620 nm) were recorded on a PHERAstar FSX plate reader (BMG Labtech). The inhibition percentage of CDK4/Cyclin D1 or CDK6/Cyclin D3 kinase activity in presence of increasing concentrations of compounds was calculated based on the ratio of fluorescence at 665 nm to that at 620 nm. The IC50 for each compound was derived from fitting the data to the four-parameter logistic equation by Dotmatics.

CDK6/Cyclin D3 = CDK6/Cyclin D3 (Homo sapiens (Human), UniProt Q00534); experiment: CDK6/Cyclin D3 kinase TR-FRET inhibition assay; assay type: biochemical; conditions: 1 mM ATP, Rb (Ser780)-biotin substrate, read-out: CDK6D3 IC50
Procedure: as §1

Sequence of CDK4/Cyclin D1 (P11802 whole entry): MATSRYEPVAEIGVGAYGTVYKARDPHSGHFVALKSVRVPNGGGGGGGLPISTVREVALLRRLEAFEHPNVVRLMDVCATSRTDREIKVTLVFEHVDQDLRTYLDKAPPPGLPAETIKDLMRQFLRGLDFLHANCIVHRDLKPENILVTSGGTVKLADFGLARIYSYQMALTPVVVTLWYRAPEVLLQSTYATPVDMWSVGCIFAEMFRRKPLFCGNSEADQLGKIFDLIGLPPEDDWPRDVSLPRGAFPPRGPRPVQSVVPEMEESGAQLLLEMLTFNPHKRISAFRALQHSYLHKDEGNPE
Sequence of CDK4/Cyclin D1 (P24385 whole entry partner): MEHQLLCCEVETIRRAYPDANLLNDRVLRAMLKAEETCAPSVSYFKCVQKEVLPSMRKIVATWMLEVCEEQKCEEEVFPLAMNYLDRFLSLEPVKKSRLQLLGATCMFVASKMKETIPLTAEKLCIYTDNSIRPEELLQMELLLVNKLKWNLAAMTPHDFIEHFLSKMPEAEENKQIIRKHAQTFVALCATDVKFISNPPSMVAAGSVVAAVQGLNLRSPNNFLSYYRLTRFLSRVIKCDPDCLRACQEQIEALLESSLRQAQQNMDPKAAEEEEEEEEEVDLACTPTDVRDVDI
Sequence of CDK6/Cyclin D3 (Q00534 whole entry): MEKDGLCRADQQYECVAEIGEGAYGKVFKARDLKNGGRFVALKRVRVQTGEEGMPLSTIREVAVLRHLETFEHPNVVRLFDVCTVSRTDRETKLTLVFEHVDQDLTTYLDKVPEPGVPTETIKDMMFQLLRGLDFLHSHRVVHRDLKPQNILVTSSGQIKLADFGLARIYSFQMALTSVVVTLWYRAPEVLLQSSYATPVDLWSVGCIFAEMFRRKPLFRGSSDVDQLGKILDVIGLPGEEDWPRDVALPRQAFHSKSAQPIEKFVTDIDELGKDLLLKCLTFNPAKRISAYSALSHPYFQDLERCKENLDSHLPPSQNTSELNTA
Sequence of CDK6/Cyclin D3 (P30281 whole entry partner): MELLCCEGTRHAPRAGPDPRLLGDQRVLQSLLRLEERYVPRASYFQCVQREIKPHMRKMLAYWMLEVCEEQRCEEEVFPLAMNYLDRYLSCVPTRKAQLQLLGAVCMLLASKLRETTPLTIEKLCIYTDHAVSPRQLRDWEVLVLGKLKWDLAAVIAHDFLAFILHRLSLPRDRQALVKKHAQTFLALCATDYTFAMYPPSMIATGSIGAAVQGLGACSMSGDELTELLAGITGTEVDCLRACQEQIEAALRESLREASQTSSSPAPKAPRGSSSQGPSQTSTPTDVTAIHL

IC50 (CDK4/Cyclin D1) [nM]	IC50 (CDK6/Cyclin D3) [nM]	Compound
67	670	CNC(=O)c1cnc2ccc(-c3nc(N[C@@H]4CCOC[C@H]4O)ncc3F)cc2c1C(C)C [Example 1, 6-(5-fluoro-2-(((3S,4R)-3-hydroxytetrahydro-2H-pyran-4-yl)amino)pyrimidin-4-yl)-4-isopropyl-N-methyl quinoline-3-carboxamide]
4.6	69	CC(C)c1c(C(C)(C)O)cnc2ccc(-c3nc(N[C@@H]4CCOC[C@H]4O)ncc3F)cc12 [Example 2]
4.9	73.5	CC(C)c1c(CO)cnc2ccc(-c3nc(N[C@@H]4CCOC[C@H]4O)ncc3F)cc12 [Example 3, (3S,4R)-4-((5-fluoro-4-(3-(hydroxymethyl)-4-isopropylquinolin-6-yl)pyrimidin-2-yl)amino)tetrahydro-2H-pyran-3-ol]
38	418	CC(C)c1ccnc2ccc(-c3nc(N[C@@H]4CCOC[C@H]4O)ncc3Cl)cc12 [Example 4, (3S,4R)-4-((5-chloro-4-(4-isopropylquinolin-6-yl)pyrimidin-2-yl)amino)tetrahydro-2H-pyran-3-ol]
108	810	Cc1cc(C(C)C)c2cc(-c3nc(N[C@@H]4CCOC[C@H]4O)ncc3Cl)ccc2n1 [Example 5, (3S,4R)-4-((5-chloro-4-(4-isopropyl-2-methylquinolin-6-yl)pyrimidin-2-yl)amino)tetrahydro-2H-pyran-3-ol]
9.3	158	Cc1cnc2ccc(-c3nc(N[C@@H]4CCOC[C@H]4O)ncc3F)cc2c1C(C)C [Example 6, (3S,4R)-4-((5-fluoro-4-(4-isopropyl-3-methylquinolin-6-yl)pyrimidin-2-yl)amino)tetrahydro-2H-pyran-3-ol]
44	528	Cc1nc2ccc(-c3nc(N[C@@H]4CCOC[C@H]4O)ncc3F)cc2c(C(C)C)c1C [Example 7, (3S,4R)-4-((5-fluoro-4-(4-isopropyl-2,3-dimethylquinolin-6-yl)pyrimidin-2-yl)amino)tetrahydro-2H-pyran-3-ol]
14	252	CC(C)c1ccnc2ccc(-c3nc(N[C@@H]4CCOC[C@H]4O)ncc3F)cc12 [Example 8, (3S,4R)-4-((5-fluoro-4-(4-isopropylquinolin-6-yl)pyrimidin-2-yl)amino)tetrahydro-2H-pyran-3-ol]
21	92.4	Cc1c(-c2nc(N[C@@H]3CCOC[C@H]3O)ncc2F)ccc2nccc(C(C)C)c12 [Example 9, (3S,4R)-4-((5-fluoro-4-(4-isopropyl-5-methylquinolin-6-yl)pyrimidin-2-yl)amino)tetrahydro-2H-pyran-3-ol]
77	924	Cc1cc(C(C)C)c2cc(-c3nc(N[C@@H]4CCOC[C@H]4O)ncc3F)ccc2n1 [Example 10, (3S,4R)-4-((5-fluoro-4-(4-isopropyl-2-methylquinolin-6-yl)pyrimidin-2-yl)amino)tetrahydro-2H-pyran-3-ol]
21	567	CC(C)c1c(CN(C)C)cnc2ccc(-c3nc(N[C@@H]4CCOC[C@H]4O)ncc3F)cc12 [Example 11, (3S,4R)-4-((4-(3-((dimethylamino)methyl)-4-isopropylquinolin-6-yl)-5-fluoropyrimidin-2-yl)amino)tetrahydro-2H-pyran-3-ol]
19	323	CC(C)c1c(CN2CCCC2=O)cnc2ccc(-c3nc(N[C@@H]4CCOC[C@H]4O)ncc3F)cc12 [Example 12, 1-((6-(5-fluoro-2-(((3S,4R)-3-hydroxytetrahydro-2H-pyran-4-yl)amino)pyrimidin-4-yl)-4-isopropylquinolin-3-yl)methyl)pyrrolidin-2-one]
16	464	CC(C)c1c(CN2CCOCC2=O)cnc2ccc(-c3nc(N[C@@H]4CCOC[C@H]4O)ncc3F)cc12 [Example 13, 4-((6-(5-fluoro-2-(((3S,4R)-3-hydroxytetrahydro-2H-pyran-4-yl)amino)pyrimidin-4-yl)-4-isopropylquinolin-3-yl)methyl)morpholin-3-one]
43	559	Cc1nc2ccc(-c3nc(N[C@@H]4CCOC[C@H]4O)ncc3F)cc2c(C(C)C)c1CO [Example 15, (3S,4R)-4-((5-fluoro-4-(3-(hydroxymethyl)-4-isopropyl-2-methylquinolin-6-yl)pyrimidin-2-yl)amino)tetrahydro-2H-pyran-3-ol]
15	600	CC(C)c1c(CN2CC(O)C2)cnc2ccc(-c3nc(N[C@@H]4CCOC[C@H]4O)ncc3F)cc12 [Example 16, 1-((6-(5-fluoro-2-(((3S,4R)-3-hydroxytetrahydro-2H-pyran-4-yl)amino)pyrimidin-4-yl)-4-isopropylquinolin-3-yl)methyl)azetidin-3-ol]
11	187	CC(C)c1c(CN2CCOCC2)cnc2ccc(-c3nc(N[C@@H]4CCOC[C@H]4O)ncc3F)cc12 [Example 17, (3S,4R)-4-((5-fluoro-4-(4-isopropyl-3-(morpholinomethyl)quinolin-6-yl)pyrimidin-2-yl)amino)tetrahydro-2H-pyran-3-ol]
26	598	CC(C)c1c(CN2CC[C@H](F)C2)cnc2ccc(-c3nc(N[C@@H]4CCOC[C@H]4O)ncc3F)cc12 [Example 18, (3S,4R)-4-((5-fluoro-4-(3-(((S)-3-fluoropyrrolidin-1-yl)methyl)-4-isopropylquinolin-6-yl)pyrimidin-2-yl)amino)tetrahydro-2H-pyran-3-ol]
20	1220	CC(C)c1c(CNC2CCC2)cnc2ccc(-c3nc(N[C@@H]4CCOC[C@H]4O)ncc3F)cc12 [Example 19, (3S,4R)-4-((4-(3-((cyclobutylamino)methyl)-4-isopropylquinolin-6-yl)-5-fluoropyrimidin-2-yl)amino)tetrahydro-2H-pyran-3-ol]
12	600	CC(C)c1c(CNC2CC(F)(F)C2)cnc2ccc(-c3nc(N[C@@H]4CCOC[C@H]4O)ncc3F)cc12 [Example 20, (3S,4R)-4-((4-(3-(((3,3-difluorocyclobutyl)amino)methyl)-4-isopropylquinolin-6-yl)-5-fluoropyrimidin-2-yl)amino)tetrahydro-2H-pyran-3-ol]
15	495	CC(C)c1c(CNC2CCOC2)cnc2ccc(-c3nc(N[C@@H]4CCOC[C@H]4O)ncc3F)cc12 (stereo partly drawn) [Example 21, (3S,4R)-4-((5-fluoro-4-(4-isopropyl-3-(((tetrahydrofuran-3-yl)amino)methyl)quinolin-6-yl)pyrimidin-2-yl)amino)tetrahydro-2H-pyran-3-ol]
7.1	398	CC(C)NCc1cnc2ccc(-c3nc(N[C@@H]4CCOC[C@H]4O)ncc3F)cc2c1C(C)C [Example 22, (3S,4R)-4-((5-fluoro-4-(4-isopropyl-3-((isopropylamino)methyl)quinolin-6-yl)pyrimidin-2-yl)amino)tetrahydro-2H-pyran-3-ol]
19	361	CC(C)c1c(CN2CC[C@@H](F)C2)cnc2ccc(-c3nc(N[C@@H]4CCOC[C@H]4O)ncc3F)cc12 [Example 23, (3S,4R)-4-((5-fluoro-4-(3-(((R)-3-fluoropyrrolidin-1-yl)methyl)-4-isopropylquinolin-6-yl)pyrimidin-2-yl)amino)tetrahydro-2H-pyran-3-ol]
20	620	CC(C)c1c(CNC[C@H]2CCCO2)cnc2ccc(-c3nc(N[C@@H]4CCOC[C@H]4O)ncc3F)cc12 [Example 24, (3S,4R)-4-((5-fluoro-4-(4-isopropyl-3-(((((R)-tetrahydrofuran-2-yl)methyl)amino)methyl)quinolin-6-yl)pyrimidin-2-yl)amino)tetrahydro-2H-pyran-3-ol]
8.3	224	CC(C)c1c(CNC2CC2)cnc2ccc(-c3nc(N[C@@H]4CCOC[C@H]4O)ncc3F)cc12 [Example 25, (3S,4R)-4-((4-(3-((cyclopropylamino)methyl)-4-isopropylquinolin-6-yl)-5-fluoropyrimidin-2-yl)amino)tetrahydro-2H-pyran-3-ol]
33	990	CC(C)c1c(CNC2CCCC2)cnc2ccc(-c3nc(N[C@@H]4CCOC[C@H]4O)ncc3F)cc12 [Example 26, (3S,4R)-4-((4-(3-((cyclopentylamino)methyl)-4-isopropylquinolin-6-yl)-5-fluoropyrimidin-2-yl)amino)tetrahydro-2H-pyran-3-ol]

Compound	IC50 (CDK4/Cyclin D1) [nM]	IC50 (CDK6/Cyclin D3) [nM]
CC(C)c1c(CN2CC3CC(C2)O3)cnc2ccc(-c3nc(N[C@@H]4CCOC[C@H]4O)ncc3F)cc12 [Example 14, (3S,4R)-4-((4-(3-((6-oxa-3-azabicyclo[3.1.1]heptan-3-yl)methyl)-4-isopropylquinolin-6-yl)-5-fluoropyrimidin-2-yl)amino)tetrahydro-2H-pyran-3-ol]	12	228
